Tests used:
K-562 = assay: Inhibition of cells growth by colorimetric assay (SRB), K-562; format: cell-based
Procedure, shortened: (§1)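 Human cancer and endothelial lines are seeded at 5×10^3 cells per well and, after 18 h, treated for 48 h with compound dissolved in DMSO/EtOH/PBS (0.5:0.5:99) at 10 to 10^−8 μg/ml. Cell mass is quantified by SRB staining (OD 490 nm), and growth inhibition, total growth inhibition and cell kill are calculated from triplicate wells.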

A-549 = assay: Inhibition of cells growth by colorimetric assay (SRB), A-549; format: cell-based
Procedure, shortened: as §1

SK-MEL-28 = assay: Inhibition of cells growth by colorimetric assay (SRB), SK-MEL-28; format: cell-based
Procedure, shortened: as §1

HT-29 = assay: Inhibition of cells growth by colorimetric assay (SRB), HT-29; format: cell-based
Procedure, shortened: as §1

LoVo = assay: Inhibition of cells growth by colorimetric assay (SRB), LoVo; format: cell-based
Procedure, shortened: as §1

LoVo-Dox = assay: Inhibition of cells growth by colorimetric assay (SRB), LoVo-Dox; format: cell-based
Procedure, shortened: as §1

DU-145 = assay: Inhibition of cells growth by colorimetric assay (SRB), DU-145; format: cell-based
Procedure, shortened: as §1

LNCaP = assay: Inhibition of cells growth by colorimetric assay (SRB), LNCaP; format: cell-based
Procedure, shortened: as §1

SK-BR-3 = assay: Inhibition of cells growth by colorimetric assay (SRB), SK-BR-3; format: cell-based
Procedure, shortened: as §1

IGROV-1 = assay: Inhibition of cells growth by colorimetric assay (SRB), IGROV-1; format: cell-based
Procedure, shortened: as §1

IGROV-ET = assay: Inhibition of cells growth by colorimetric assay (SRB), IGROV-ET; format: cell-based
Procedure, shortened: as §1

SK-OV-3 = assay: Inhibition of cells growth by colorimetric assay (SRB), SK-OV-3; format: cell-based
Procedure, shortened: as §1

PANC-1 = assay: Inhibition of cells growth by colorimetric assay (SRB), PANC-1; format: cell-based
Procedure, shortened: as §1

HMEC1 = assay: Inhibition of cells growth by colorimetric assay (SRB), HMEC1; format: cell-based
Procedure, shortened: as §1

Text for Heart: (§2) Toxicity was asssessed by the methods reported in Toxicology in Vitro, 15 (2001) 571-577, J. Luber Narod et al.: “Evaluation of the use of in vitro methodolodies as tools for screening new compounds for potential in vivo toxicity”.
Text for Kidney: as §2
Text for Liver: as §2
Text for Myelo: as §2
Text for Skeletal: as §2

COc1cc2c(cc1O)CCN[C@]21CS[C@@H]2c3c(OC(=O)CCCCC4SCC5NC(=O)NC54)c(C)c4c(c3[C@H](COC1=O)N1C2[C@H]2c3c(cc(C)c(OC)c3O)C[C@@H]([C@@H]1O)N2C)OCO4 (some centres unmarked) [Compound 171]
GI50 (K-562; Homo sapiens, K562, 48 h, SRB assay, 48 hours exposure, read-out: K-562 GI50): 0.243 nM
LC50 (50% cell killing) (K-562; Homo sapiens, K562, 48 h, read-out: K-562 LC50, SRB assay, 48 hours exposure): 0.982 nM
K-562 TGI (K-562; SRB assay, 48 hours exposure): 4.88E-10
GI50 (A-549; Homo sapiens, A549, 48 h, SRB assay, 48 hours exposure, read-out: A-549 GI50): 22.8 nM
LC50 (concentration for 50% cell killing) (A-549; Homo sapiens, A549, 48 h, read-out: A-549 LC50, SRB assay, 48 hours exposure): 96 nM
A-549 TGI (A-549; SRB assay, 48 hours exposure): 4.68E-08
GI50 (SK-MEL-28; Homo sapiens, SK-MEL-28, 48 h, SRB assay, 48 hours exposure, read-out: MEL-28 GI50): 5.65 nM
CC50 (SK-MEL-28; Homo sapiens, SK-MEL-28, 48 h, read-out: MEL-28 LC50, SRB assay, 48 hours exposure): 102 nM
MEL-28 TGI (SK-MEL-28; SRB assay, 48 hours exposure): 2.33E-08
GI50 (HT-29; Homo sapiens, HT-29, 48 h, SRB assay, 48 hours exposure, read-out: HT-29 GI50): 3.91 nM
LC50 (concentration for 50% cell killing) (HT-29; Homo sapiens, HT-29, 48 h, read-out: HT-29 LC50, SRB assay, 48 hours exposure): 10600 nM
HT-29 TGI (HT-29; SRB assay, 48 hours exposure): 3.24E-08
GI50 (LoVo; Homo sapiens, LoVo, 48 h, SRB assay, 48 hours exposure, read-out: LOVO GI50): 23.7 nM
LC50 (concentration for 50% cell killing) (LoVo; Homo sapiens, LoVo, 48 h, read-out: LOVO LC50, SRB assay, 48 hours exposure): 10600 nM
LOVO TGI (LoVo; SRB assay, 48 hours exposure): 7.66E-08
GI50 (LoVo-Dox; Homo sapiens, 48 h, SRB assay, 48 hours exposure, read-out: LOVO-DOX GI50): 938 nM
CC50 (LoVo-Dox; Homo sapiens, 48 h, read-out: LOVO-DOX LC50, SRB assay, 48 hours exposure): 10600 nM
LOVO-DOX TGI (LoVo-Dox; SRB assay, 48 hours exposure): 1.23E-06
GI50 (DU-145; Homo sapiens, DU-145, 48 h, SRB assay, 48 hours exposure, read-out: DU-145 GI50): 5.05 nM
CC50 (DU-145; Homo sapiens, DU-145, 48 h, read-out: DU-145 LC50, SRB assay, 48 hours exposure): 10600 nM
DU-145 TGI (DU-145; SRB assay, 48 hours exposure): 2.96E-08
GI50 (LNCaP; Homo sapiens, LNCaP, 48 h, read-out: LNCAP GI50, SRB assay, 48 hours exposure): 1.66 nM
CC50 (LNCaP; Homo sapiens, LNCaP, 48 h, read-out: LNCAP LC50, SRB assay, 48 hours exposure): 5.94 nM
LNCAP TGI (LNCaP; SRB assay, 48 hours exposure): 3.14E-09
GI50 (SK-BR-3; Homo sapiens, SK-BR-3, 48 h, SRB assay, 48 hours exposure, read-out: SK-BR3 GI50): 2.47 nM
CC50 (SK-BR-3; Homo sapiens, SK-BR-3, 48 h, read-out: SK-BR3 LC50, SRB assay, 48 hours exposure): 37.5 nM
SK-BR3 TGI (SK-BR-3; SRB assay, 48 hours exposure): 6.54E-09
GI50 (IGROV-1; Homo sapiens, IGROV-1, 48 h, SRB assay, 48 hours exposure, read-out: IGROV GI50): 1.93 nM
CC50 (IGROV-1; Homo sapiens, IGROV-1, 48 h, read-out: IGROV LC50, SRB assay, 48 hours exposure): 8.8 nM
IGROV TGI (IGROV-1; SRB assay, 48 hours exposure): 4.12E-09
GI50 (IGROV-ET; Homo sapiens, 48 h, SRB assay, 48 hours exposure, read-out: IGROV-ET GI50): 225 nM
CC50 (IGROV-ET; Homo sapiens, 48 h, read-out: IGROV-ET LC50, SRB assay, 48 hours exposure): 10600 nM
IGROV-ET TGI (IGROV-ET; SRB assay, 48 hours exposure): 7.08E-07
GI50 (SK-OV-3; Homo sapiens, SK-OV-3, 48 h, SRB assay, 48 hours exposure, read-out: SK-OV3 GI50): 6.89 nM
LC50 (SK-OV-3; Homo sapiens, SK-OV-3, 48 h, read-out: SK-OV3 LC50, SRB assay, 48 hours exposure): 10600 nM
SK-OV3 TGI (SK-OV-3; SRB assay, 48 hours exposure): 9.73E-08
GI50 (PANC-1; Homo sapiens, PANC-1, 48 h, SRB assay, 48 hours exposure, read-out: PANC-1 GI50): 7.3 nM
LC50 (concentration for 50% net cell kill) (PANC-1; Homo sapiens, PANC-1, 48 h, read-out: PANC-1 LC50, SRB assay, 48 hours exposure): 1060 nM
PANC-1 TGI (PANC-1; SRB assay, 48 hours exposure): 4.63E-08
GI50 (HMEC1; Homo sapiens, HMEC-1, 48 h, SRB assay, 48 hours exposure, read-out: HMEC-1 GI50): 2.94 nM
LC50 (HMEC1; Homo sapiens, HMEC-1, 48 h, read-out: HMEC-1 LC50, SRB assay, 48 hours exposure): 10600 nM
HMEC-1 TGI (HMEC1; SRB assay, 48 hours exposure): 6.90E-09
Toxicity Data Liver (Liver): 8.37E-08
Toxicity Data Heart (Heart): 3.13E-08
Toxicity Data Myelo (Myelo): 1.37E-07
Toxicity Data Skeletal (Skeletal): 3.58E-08
Toxicity Data Kidney (Kidney): 2.70E-08
